The test system of test [1] is mTOR. As to the kind of experiment: Total amount of mTOR (ELISA) in cells. The conditions noted are these: 48 h. Format: cell-based, mouse. As to the method: Enzyme-Linked Immunosorbent Assay (ELISA) kits were used (mTOR SimpleStep ELISA Kit and NFκB p65 Total SimpeStep ELISA Kit, Abcam, Cambridge, UK) to quantify mammalian (or mechanistic) target of rapamycin (mTOR) and transcription factor NF-κB amounts, respectively. […] The control wells were treated with the solvent only (0.5% DMSO). Cells were solubilized using the provided extraction buffer with the kit, incubated on ice for 20 minutes and centrifuged at 18 000 × g for 20 min at 4°C. The supernatants were stored at -80°C till the day of the analysis. Standards and samples were then analyzed following the manufacturer's protocol (ELISA sandwich method) and by reading the absorbance with the EnVision plate reader (EnVision, PerkinElmer, Inc., Waltham, MA, USA) at 450 nm. The results were analyzed as pmol of formed mTOR or NF-κB per mL.
On the technique in general: In an ELISA, binding on a coated surface is turned into a signal by an enzyme label.

Test [2] concerns the target T1, purified human BACE1 (Homo sapiens, UniProt P56817).
T1 construct: purchased AnaSpec, Inc., Fremont, CA, USA SensoLyte 520 BACE1 Assay kit (catalogue number not given)
As to the kind of experiment: BACE1 FRET inhibition assay (SensoLyte 520). Type of test: biochemical. The note with it: 0.25 μM; 30 min. From the text: A fluorometric assay was used to screen the inhibitory effect of the studied compounds on purified human BACE1 using a fluorescence resonance energy transfer (FRET) peptide technique (SensoLyte© 520 BACE1 Assay kit, AnaSpec, Inc., Fremont, CA, USA) according to the manufacturer's protocol. […] The sequence of the FRET peptide has been derived from the β-secretase cleavage site of β-amyloid precursor protein (APP) with Swedish mutation, which enhances β-secretase to process APP resulting in an early onset of AD. Thus, active β-secretase cleaved FRET substrate into two separate fragments resulting in the release of HiLyte™ Fluor 488 fluorescence that was measured by the EnVision plate reader (EnVision, PerkinElmer, Inc., Waltham, MA, USA) at λex 490 nm and λem 520 nm. […] The results were reported as percentages (%), with control sample representing 100% β-secretase activity.

In test [3] the test system is peroxidase activity of cyclooxygenases (COX). As to the kind of experiment: Peroxidase activity of cyclooxygenases in cell lysates (fluorometric kit). The conditions noted are these: 100 μM; 30 min; assay does not differentiate COX from LOX. Type of test: biochemical. The method, then: A coupled oxidation-reduction fluorometric assay was used to assess the inhibitory effect of compounds (100 μM) together with positive controls on the peroxidase activity of cyclooxygenases (COX) (ab204699 Cyclooxygenase Activity Assay Kit, Abcam, Cambridge, UK). The method has been done and validated according to the manufacturer's protocol. Briefly, studied compounds (100 μM) and the reaction mixture were incubated with the cell lysates at room temperature and the reaction was initiated by adding arachidonic acid/NaOH solution. The fluorescence was read in a kinetic mode after every 15 seconds for 30 minutes by the EnVision plate reader (EnVision, PerkinElmer, Inc., Waltham, MA, USA) at λex 535 nm and λem 587 nm.

Five compounds from PMC6877910, “Astrocyte-Targeted Transporter-Utilizing Derivatives of Ferulic Acid Can Have Multifunctional Effects Ameliorating Inflammation and Oxidative Stress in the Brain” (Oxidative Medicine and Cellular Longevity, 2019) can be followed below.

T1 sequence (P56817 46-501): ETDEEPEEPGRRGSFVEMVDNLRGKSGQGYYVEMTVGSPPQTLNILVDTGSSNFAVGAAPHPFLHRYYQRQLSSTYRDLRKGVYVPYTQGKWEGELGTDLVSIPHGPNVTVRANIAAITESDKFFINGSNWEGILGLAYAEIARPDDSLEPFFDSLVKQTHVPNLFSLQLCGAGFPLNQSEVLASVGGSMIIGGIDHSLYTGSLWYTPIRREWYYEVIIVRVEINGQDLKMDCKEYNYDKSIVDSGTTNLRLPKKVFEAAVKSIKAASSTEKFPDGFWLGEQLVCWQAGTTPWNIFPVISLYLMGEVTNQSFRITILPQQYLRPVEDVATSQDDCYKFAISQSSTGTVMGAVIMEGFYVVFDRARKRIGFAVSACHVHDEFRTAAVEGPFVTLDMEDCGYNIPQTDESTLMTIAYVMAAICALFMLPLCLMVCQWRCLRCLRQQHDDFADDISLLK

On to `CN(C)C(=N)N=C(N)N` [metformin], for which the “Reduction of total amount of mTOR” value in test [1] (100 μM) is on record as “did not affect”.

Turning to “KTEEISEVN-Sta-VAEF-NH2 [reference compound]”, in test [2], the BACE1 inhibition result is “ca. 85%”.

Consider `O=C(O)Cc1ccccc1Nc1c(Cl)cccc1Cl` [DCF, diclofenac], for which the “Inhibition of peroxidase activity of COX enzymes” value in test [3] is 18%.

As to `CO[C@H]1C[C@@H]2CC[C@@H](C)[C@@](O)(O2)C(=O)C(=O)N2CCCC[C@H]2C(=O)O[C@H]([C@H](C)C[C@@H]2CC[C@@H](O)[C@H](OC)C2)CC(=O)[C@H](C)/C=C(\C)[C@@H](O)[C@@H](OC)C(=O)[C@H](C)C[C@H](C)/C=C/C=C/C=C/1C` [rapamycin], the “Reduction of total amount of mTOR” value in test [1] (1 μM) is 46-49%.

Consider `NCC1(CC(=O)O)CCCCC1` [gabapentin], for which the “Reduction of total amount of mTOR” value in test [1] (100 μM) was 46-49%.
